In patent US20170052172A1, “IMMUNE HEPATOTOXICITY SCREENING METHOD USING HEPATOCYTES DERIVED FROM HUMAN STEM CELLS” (KOREA ADVANCED INSTITUTE OF SCIENCE AND TECHNOLOGY, priority 2014, published 2017):

Key:
[1] = tested on: human hepatocytes (hES15); experiment: Cytokine ELISA secretion profiling of human hepatocytes after drug treatment
Method: Upon completion of the culture, the maturation of hepatocytes was induced by the same manner as described in Example 1 and then the matured hepatocytes were obtained (FIG. 1).
(§1) Particularly, the hepatocytes at 19th day of the differentiation from human stem cells, which were prepared by the method described in Example 1, were distributed in a 6-well plate (90%/well), and then the medium was replaced with 1000 mg/L DMEM-low glucose medium (Dulbecco's Modified Eagle's Medium, Welgene No. 001-11), followed by culture for 2 hours. Then, the stem cell derived hepatocyte culture medium was obtained. To eliminate by-products of the cell culture, centrifugation was performed at 12,000×g, for 20 minutes at 4° C. Supernatant was obtained. The capture antibodies, 2.5 μg/ml anti-IL-1β antibody, 2 μg/ml anti-IL-6 antibody, 2.5 μg/ml anti-IL-10 antibody, 2 μg/ml anti-IL-12 antibody, 1 μg/ml anti-TNF-α antibody, 2 μg/ml anti-IFN-α antibody, 1 μg/ml anti-IFN-β antibody, and 2 μg/ml anti-TGF-β antibody, were cultured at 37° C. for 2 hours, with which 96-well ELISA plate was coated. The plate was washed, followed by blocking with 0.2% I-block (Foster city, CA) at 37° C. for 2 hours. Upon completion of the blocking, the capture antibodies were washed and cultured with a standard material (2 fold serial diluted in protein free flexible plate from 10 ng/ml to 4.88 pg/ml) and the supernatant in ELISA plate (Greiner, Kremsmunster, Austria) at 37° C. for 2 hours. Upon completion of the culture, the biotinylated detection antibodies (anti-IL-1β antibody: 2 μg/ml, anti-IL-6 antibody: 1 μg/ml, anti-IL-10 antibody: 1 μg/ml, anti-IL-12 antibody: 1 μg/ml, anti-TNF-α antibody: 1 μg/ml, anti-IFN-α antibody: 4 μg/ml, anti-IFN-β antibody: 2 μg/ml, anti-TGF-β antibody: 1 μg/ml, final concentration) were added thereto, followed by further culture at 37° C. for 2 hours. Then, alkaline phosphatase conjugated streptavidin was added thereto, followed by further culture at room temperature for 30 minutes. 5 mM nitrophenyl phosphate substrate was added thereto, and OD405 was measured by using ELISA reader.
Particularly, the hepatocytes at 19th day of the differentiation from human stem cells, which were prepared by the method described in Example 1, were distributed in a 6-well plate (90%/well), and then the medium was replaced with 1000 mg/L DMEM-low glucose medium (Dulbecco's Modified Eagle's Medium, Welgene No. 001-11), followed by culture for 2 hours. […] Then, culture fluids of the hepatocytes differentiated from stem cells and the human hepatocytes were obtained to extract immunotoxic materials therefrom. To eliminate by-products of the cultured cells, centrifugation was performed at 12,000×g for 20 minutes at 4° C., and then supernatant was obtained. […]

[2] = tested on: hepatocytes differentiated from human embryonic stem cells (hESC4); experiment: Cytokine ELISA secretion profiling of stem cell derived hepatocytes after drug treatment; conditions: ELISA of supernatant
Method: as §1
(§2) Particularly, the hepatocytes at 19th day of the differentiation from human stem cells, which were prepared by the method described in Example 1, were distributed in a 6-well plate (90%/well), and then the medium was replaced with 1000 mg/L DMEM-low glucose medium (Dulbecco's Modified Eagle's Medium, Welgene No. 001-11), followed by culture for 2 hours.

[3] = tested on: hepatocytes differentiated from human embryonic stem cells (hESC4)
Method: as §1, §2

[4] = CCl4 0, 5, 10, 20 mM for 24 hours, ELISA of supernatant
[5] = CCl4 0, 5, 10, 20 mM for 24 hours

Question: With `ClC(Cl)(Cl)Cl` [CCl4] as the compound, how does the IFN-α detected [1, 4] read?
Answer: The IFN-α detected was “also detected in the cells”.

Question: And the IL-10 detected [1, 4]?
Answer: Its IL-10 detected is “also detected in the cells”.

Question: What about the “cytokine secretion compared with hepatocytes differentiated from stem cells” value ([1]; considering the smaller number of human hepatocytes, CCl4: cytokines, acetaminophen: IL-6 and IFN-β) of the same compound?
Answer: Its value is “secreted more in human hepatocytes”.

Question: And the IL-6 detected ([1]; treatment for 24 hours (CCl4 0, 5, 10, 20 mM; acetaminophen 0, 10, 20 mM), ELISA of supernatant)?
Answer: Its IL-6 detected is “also detected in the cells”.

Question: What about the IFN-α detected [2, 5] of the same compound?
Answer: Its IFN-α detected is “detected in the cells CCl4 dose dependently”.

Question: What about the IL-10 detected [2, 5] of the same compound?
Answer: Its IL-10 detected is “detected in the cells CCl4 dose dependently”.

Question: And the IL-6 detected ([2]; treatment for 24 hours (CCl4 0, 5, 10, 20 mM; acetaminophen 0, 10, 20 mM))?
Answer: The IL-6 detected was “detected in the cells CCl4 dose dependently”.

Question: For `CCO` [ethanol], which “ethanol induced toxic reaction” value [3] is on record?
Answer: The value was “did not show ethanol induced toxic reaction”.
